In patent US5994320A, “Antisense oligonucleotides and methods for treating central nervous system tumors” (Regents of the University of Minnesota, priority 1997, dated 1999):

Legend:
EGF receptor = EGF receptor expression by flow cytometry in T98 and U87 cells; format: cell-based, human; conditions: 10 μM, 48 hours
Experimental: The effects of c-myb antisense on the expression of epidermal growth factor (EGF) receptors in T98 and U87 cells in vitro was examined using a flow cytometric approach to quantify fluorescently labeled receptors. T98 and U87 cell lines that were treated with 10 μM antisense oligonucleotides for 48 hours were harvested. About 10^5 10^6 (number of cells) were incubated with fluorescently labeled antibody to EGF receptor (available from Upstate Biotech, Inc.) for 24 hours. The cells were then analyzed using a Beckman FACS cell sorter.
Cells for receptor expression assays were harvested, washed twice in PBS and fixed in 70% ethanol of 2% paraformaldehyde. After washing, cells were incubated with appropriate concentrations of specific receptor antibodies for 2-12 hours. Antibody conjugated FITC was then added to the cell suspensions. Cells were washed well between steps and resuspended in Hanks balanced salt solution, 1% sodium azide, and 1% bovine serum albumin. FITC fluorescence was then assayed by flow cytometry counting 10,000 cells per sample. The amount of fluorescently labeled EGF receptor and PDGF receptor were determined by standard flow cytometry analysis.

[1] = system: T98 glioblastoma cell line; assay: 3H-thymidine assay of T98 cell proliferation; format: cell-based, human; conditions: T98 cells, 5 nanomoles/500 microliters; for 3H-thymidine incorporation, mean ± SEM: 2 days; for % Control (proliferation): 2 days (48 hours)
Experimental: (§1) Antisense oligonucleotides were incubated with glioblastoma (T98, U87, U373) and medulloblastoma (DAOY) cell lines when they were approximately 60% confluent. Antisense oligonucleotides were added at 5 nanomoles/500 microliters and incubated for 2 days in phosphate buffered saline. Growth of cells lines was measured at 2 days using a standard ^3 H-thymidine assay. Coligan et al., Current Protocols in Immunology, Vol. 2, pg.

U87 gliomas = assay: Intraflank U87 tumors in nude mice, intratumoral injection; format: in vivo, athymic nude mice; conditions: for Change in tumor size at day 21: 100 μM, 50 μl (5 nanomoles/injection) intratumorally every two days, days 13 to 21
Experimental: Solid U87 gliomas were established in the flanks of athymic nude mice aged 4-6 weeks. Each animal received 5×10^6 U87 cells in 200 μl of medium. The cells were injected subcutaneously into one flank through a 25-gauge needle attached to a tuberculin syringe.
Cells were initially grown in a monolayer at 37° C. in DMEM medium containing 10% fetal calf serum, 2 mM glutamine, 1000 IU/ml of penicillin, and 100 μg/ml of streptomycin. Cells were harvested from culture flasks using trypsin immediately before injection and were kept on ice until the time of injection. Before injection the number of viable cells were confirmed by trypan blue exclusion. Past experience has shown that approximately 90% of tumors will successfully grow in the flank after U87 cell inoculation.
Tumors were allowed to grow for 14 days. Tumor size was evaluated with Vernier calipers using the formula 1/2 length(width)^2 where the length was the longest dimension and the width was the diameter perpendicular to the length. AONcmyb(2-7) was then injected using a Hamilton syringe directly into the tumor at a concentration of 0, 1, 10, or 100 μM in 50 μl volumes on alternate days for 8 days (FIG. 1).
The effects of administering 100 μM concentrations of AONcmyb(2-7) and AONcmyb(182-188) with their corresponding nonsense oligonucleotides, NONcmyb(2-7) and NONcmyb(182-188) along with Hank's Balanced Salt Solution as controls was compared. From days 13 to 21 animals received 50 μl(5 nanomoles/injection) injections intratumorally of either antisense, nonsense, or HBSS every two days.

[2] = system: U373 glioblastoma cell line; assay: 3H-thymidine assay of U373 cell proliferation; format: cell-based, human; conditions: U373 cells, 5 nanomoles/500 microliters; for 3H-thymidine incorporation, mean ± SEM: 2 days; for % Control (proliferation): 2 days (48 hours)
Experimental: as §1

[3] = system: DAOY medulloblastoma cell line; assay: 3H-thymidine assay of DAOY cell proliferation; format: cell-based, human; conditions: DAOY cells, 5 nanomoles/500 microliters; for 3H-thymidine incorporation, mean ± SEM: 2 days; for % Control (proliferation): 2 days (48 hours)
Experimental: as §1

[4] = system: U87 glioblastoma cell line; assay: 3H-thymidine assay of U87 cell proliferation; format: cell-based, human; conditions: U87 cells, 5 nanomoles/500 microliters; for 3H-thymidine incorporation, mean ± SEM: 2 days; for % Control (proliferation): 2 days (48 hours)
Experimental: as §1

[5] = Toxicity of intraventricular antisense administration (Whitesell et al.); format: in vivo, rats; conditions: 0.1 nmole/hr versus toxic 3.0 nmole/hr
Experimental: In a study assessing the toxicity of intraventricular antisense administration (Whitesell et al., Proc. Natl. Acad. Sci., 90:4665-4669, 1993), it was determined that dosages of 1.5 nmoles/hr were well tolerated in rats while a dose of 3.0 nmole/hr was toxic. […] Therefore, it is believed that an increase in dose of the c-myb antisense can be administered that will improve survival without toxic side effects.

[6] = system: human U87 glioblastoma cells; assay: Intracerebral infusion, survival of nude rats with intrastriatal U87 xenografts; format: in vivo; conditions: 0.1 nmole/hour continuous infusion over 14 days; saline animals survived only 13 days
Experimental: The effects of infusing c-myb antisense to codons 2-7 on the survival of nude rats with intrastriatal xenografts of human U87 glioblastoma cells was examined. A dose of 0.1 nmole/hour was infused. This dose is equivalent to the delivery of 100 µM of c-myb antisense injected directly into intraflank U87 tumors in 50 Ul volumes on alternate days. Animals received continuous infusions of either c-myb antisense or saline by Alzet Osmotic Minipump (Alza, Palo Alto, Calif.) over a period of 14 days. The pump was implanted immediately above the site of the tumor.

| Substance | EGF receptor binding, % of control levels (EGF receptor) | 3H-thymidine incorporation, mean ± SEM [1] | % Control (proliferation) [1] [%] | Change in tumor size at day 21 (U87 gliomas) | 3H-thymidine incorporation, mean ± SEM [2] | % Control (proliferation) [2] [%] | 3H-thymidine incorporation, mean ± SEM [3] | % Control (proliferation) [3] [%] | 3H-thymidine incorporation, mean ± SEM [4] | % Control (proliferation) [4] [%] | Factor by which the dose used is below the toxic level for antisense in the brain [5] [times] | Animals with increased survival times [6] [%] | Suppression of tumor growth, comparison of concentrations (U87 gliomas; 100 μM versus 0, 1, 10 μM, 50 μl intratumoral on alternate days for 8 days) |
| --- | --- | --- | --- | --- | --- | --- | --- | --- | --- | --- | --- | --- | --- |
| 5'-TGTAGAATTCCAGTGGTTCTT-3' (antisense TGTAGAATTCCAGTGGTTCTT; chemistry not given here) [AONcmyb(182-188)] | 30%-35% | 78,457 ± 3,224 dpm | 61 | no significant change | 588,082 ± 25,836 dpm | 76 | 517,725 ± 105,450 dpm | 45 | 92,968 ± 37,259 dpm | 25 | – | – | – |
| 5'-GTG CCG GGG TCT TCG GGC-3' (antisense GTGCCGGGGTCTTCGGGC; chemistry not given here) [AONcmyb(2-7), antisense to the initiator region of c-myb, codons 2-7] | 13%-30% | 67,318 ± 6,183 dpm | 53 | no significant change | 402,504 ± 49,647 dpm | 52 | 604,061 ± 59,989 dpm | 53 | 74,688 ± 10,145 dpm | 20 | 30 | 25 | most effective in suppressing tumor growth |
